Calls of active or inactive are those of the source. No cut-off for these calls is given here.
Assays:
[1] = target: T1, von Hippel-Lindau disease tumor suppressor/Bromodomain-containing protein 4 (Homo sapiens) (UniProt O60885+P40337); test: PROTAC activity at BRD4/VHL in human DU-145 cells assessed as induction of BRD4 degradation up to 100 nM incubated for 24 hrs by Western blotting analysis; type: cell-based
[2] = target: T1, von Hippel-Lindau disease tumor suppressor/Bromodomain-containing protein 4 (Homo sapiens); test: PROTAC activity at BRD4/VHL in human LNCaP cells assessed as induction of BRD4 degradation at 10 nM incubated for 8 hrs in presence of MLN4924 by Western blotting analysis; type: cell-based
[3] = target: T1, von Hippel-Lindau disease tumor suppressor/Bromodomain-containing protein 4 (Homo sapiens); test: PROTAC activity at BRD4/VHL PSMA knockdown in human LNCaP cells assessed as induction of BRD4 degradation at 3 nM incubated for 12 hrs by Western blotting analysis; type: cell-based
[4] = Toxicity in male BALB/c mouse assessed as effect on spleen weight at 0.47 mmol/L, iv administered every day for 21 days; type: organism-based; settings: in vivo, 504 h, time 21 day
[5] = Toxicity in male BALB/c mouse assessed as effect on liver weight at 0.47 mmol/L, iv administered every day for 21 days; type: organism-based; settings: in vivo, 504 h, time 21 day
[6] = Drug concentration in male BALB/c mouse Tumor at 0.14 mmol/L, iv; type: ADME, tissue-based, Neoplasm; settings: in vivo
[7] = Toxicity in male BALB/c mouse assessed as body weight loss at 0.47 mmol/L, iv administered every day for 21 days; type: organism-based; settings: in vivo, 504 h, time 21 day
[8] = target: T1, von Hippel-Lindau disease tumor suppressor/Bromodomain-containing protein 4 (Homo sapiens); test: PROTAC activity at BRD4/VHL in human 22Rv1 cells expressing PSMA assessed as induction of BRD4 degradation incubated for 24 hrs by Western blotting analysis; type: cell-based; settings: dose <= 100.0 nM
[9] = target: T1, von Hippel-Lindau disease tumor suppressor/Bromodomain-containing protein 4 (Homo sapiens); test: PROTAC activity at BRD4/VHL in human LNCaP cells expressing PSMA assessed as induction of BRD4 degradation incubated for 24 hrs by Western blotting analysis; type: cell-based; settings: dose <= 100.0 nM
[10] = Toxicity in male BALB/c mouse assessed as effect on kidney weight at 0.47 mmol/L, iv administered every day for 21 days; type: organism-based; settings: in vivo, 504 h, time 21 day
[11] = target: T1, von Hippel-Lindau disease tumor suppressor/Bromodomain-containing protein 4 (Homo sapiens); test: PROTAC activity at BRD4/VHL in human LNCaP cells assessed as induction of BRD4 degradation at 10 nM incubated for 8 hrs in presence of VH032 by Western blotting analysis; type: cell-based
DU-145 = test: Cytotoxicity against human DU-145 cells assessed as cell viability incubated for 72 hrs by CCK-8 assay; type: functional, cell-based
[12] = target: T1, von Hippel-Lindau disease tumor suppressor/Bromodomain-containing protein 4 (Homo sapiens); test: PROTAC activity at BRD4/VHL in human J82 cells assessed as induction of BRD4 degradation up to 100 nM incubated for 24 hrs by Western blotting analysis; type: cell-based
[13] = Toxicity in male BALB/c mouse assessed as effect on tumor weight at 0.47 mmol/L, iv administered every day for 21 days; type: organism-based; settings: in vivo, 504 h, time 21 day
[14] = target: T1, von Hippel-Lindau disease tumor suppressor/Bromodomain-containing protein 4 (Homo sapiens); test: PROTAC activity at BRD4/VHL in human VCaP cells expressing PSMA assessed as induction of BRD4 degradation incubated for 24 hrs by Western blotting analysis; type: cell-based; settings: dose <= 100.0 nM
[15] = Toxicity in male BALB/c mouse assessed as effect on heart weight at 0.47 mmol/L, iv administered every day for 21 days; type: organism-based; settings: in vivo, 504 h, time 21 day
[16] = target: T1, von Hippel-Lindau disease tumor suppressor/Bromodomain-containing protein 4 (Homo sapiens); test: PROTAC activity at BRD4/VHL in HEK293 cells assessed as induction of BRD4 degradation up to 100 nM incubated for 24 hrs by Western blotting analysis; type: cell-based
LNCaP = test: Antitumor activity against human LNCaP cells xenografted in BALB/c mouse assessed as tumor growth inhibition at 0.47 mmol/L, iv administered every day for 21 days; type: functional; settings: 504 h, time 21 day, read-out: TGI
[17] = Toxicity in male BALB/c mouse assessed as effect on lung weight at 0.47 mmol/L, iv administered every day for 21 days; type: organism-based; settings: in vivo, 504 h, time 21 day
J82 = test: Cytotoxicity against human J82 cells assessed as cell viability incubated for 72 hrs by CCK-8 assay; type: functional, cell-based
[18] = Drug concentration in male BALB/c mouse plasma at 0.14 mmol/L, iv; type: ADME, cell-free
[19] = Half life in BALB/c mouse at 0.14 mmol/L, iv; type: ADME; settings: in vivo
[20] = target: T1, von Hippel-Lindau disease tumor suppressor/Bromodomain-containing protein 4 (Homo sapiens); test: PROTAC activity at BRD4/VHL in human LNCaP cells assessed as induction of BRD4 degradation at 10 nM incubated for 8 hrs in presence of MG132 by Western blotting analysis; type: cell-based
[21] = target: T1, von Hippel-Lindau disease tumor suppressor/Bromodomain-containing protein 4 (Homo sapiens); test: PROTAC activity at BRD4/VHL in human LNCaP cells assessed as induction of BRD4 degradation at 3 nM incubated for 24 hrs in presence of filipin by Western blotting analysis; type: cell-based
HEK-293T = test: Cytotoxicity against HEK293T cells assessed as cell viability incubated for 72 hrs by CCK-8 assay; type: toxicity, cell-based; settings: human

T1 sequence (P40337 whole entry, looked up, other chains not shown): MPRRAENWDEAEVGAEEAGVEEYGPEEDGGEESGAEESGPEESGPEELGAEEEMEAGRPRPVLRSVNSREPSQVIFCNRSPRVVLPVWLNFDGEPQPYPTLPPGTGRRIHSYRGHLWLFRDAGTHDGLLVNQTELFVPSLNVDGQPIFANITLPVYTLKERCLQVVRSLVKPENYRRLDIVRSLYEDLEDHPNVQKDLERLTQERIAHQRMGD

Cc1ncsc1-c1ccc([C@H](C)NC(=O)[C@@H]2C[C@@H](OC(=O)CCCc3cn(CCCNC(=O)[C@H](Cc4ccc(O)cc4)NC(=O)[C@H](Cc4ccccc4)NC(=O)CCC(=O)NCCCCCC(=O)N(CCCC[C@H](NC(=O)N[C@@H](CCC(=O)O)C(=O)O)C(=O)O)Cc4cccc(Cl)c4)nn3)CN2C(=O)[C@@H](NC(=O)COCCCOCCNC(=O)C[C@@H]2N=C(c3ccc(Cl)cc3)c3c(sc(C)c3C)-n3c(C)nnc32)C(C)(C)C)cc1
Activity [1]: inactive | Activity [2]: Active | Activity [3]: Active | Activity [4]: Non-toxic | Activity [5]: Non-toxic | Drug uptake [6]: Active | Activity [7]: Non-toxic | Activity [8]: Dose-dependent-effect | Activity [9]: Dose-dependent-effect | Activity [10]: Non-toxic | Activity [11]: Active | Activity (DU-145): inactive | Activity [12]: inactive | Activity [13]: Non-toxic | Activity [14]: Dose-dependent-effect | Activity [15]: Non-toxic | Activity [16]: inactive | inhibition in vivo at 470 µM (LNCaP): 88.6% | Activity [17]: Non-toxic | Activity (J82): inactive | Cp [18]: Active | half-life [19]: 4.19 h | Activity [20]: Active | Activity [21]: Active | Activity (HEK-293T): Non-toxic
